Source: patent US20250319139A1, “METHODS FOR TREATING NEUROINFLAMMATION” (University of Virginia Patent Foundation, priority 2021, published 2025)

Assays:
Assay type in all cases: in vivo, mouse
IL-6 = IL-6 in the hippocampus by ELISA; conditions: young adult mice with exercise and surgery; intraperitoneal valeric acid
Protocol: IL-1β, IL-6, C3 and GDNF in the hippocampus were detected by using ELISA kits. For testing the IL-1β, IL-6 and GDNF, brain tissues were homogenized on ice in the RIPA buffer containing 25 mM Tris-HCl with pH 7.6, 150 mM NaCl, 1% sodium deoxycholate, 0.1% SDS and a protease inhibitor cocktail containing 10 mg/ml aproteinin, 5 mg/ml peptastin, 5 mg/ml leupetin and 1 mM phenylmethane sulfonylfluoride. For C3 testing, brain tissues were homogenized on ice in the PTR buffer (supplied in the kit). The supernatant was collected for ELISA detection after the homogenate was centrifuged at 13,000 g for 20 min at 4° C. and the protein concentration was determined by the BCA protein assay (Bio-Rad, Hemel Hempstead, Herts, UK). IL-1β, IL-6, C3 and GDNF in supernatant of brain were detected according to the manufacturer's instruction for ELISA, and the amount of them in each sample in the brain was normalized by its total protein content and was expressed as pg/mg protein.

Iba-1 = Iba-1 immunofluorescent staining of hippocampus; conditions: young adult mice with exercise and surgery; intraperitoneal valeric acid
Protocol: (§1) The immunofluorescent labeling and quantification of the staining were performed as described before. Briefly, brain was fixed in 4% paraformaldehyde at 4° C. for 24 h and then incubated in 30% sucrose over night at 4° C. before being frozen in optimal cutting temperature compound. Coronal 20-μm thick sections were cut sequentially from Bregma -3 to -6 mm by using a cryostat and mounted on microscope slides. After being washed in Tris-buffered saline (TBS), sections were blocked in 10% donkey serum plus 1% bovine serum albumin (BSA) in TBS containing 0. 3% triton-X 100 for 2 h at room temperature and then incubated at 4° C. overnight with the following primary antibodies: rabbit monoclonal anti-C3 antibody (1:50), goat monoclonal anti-GFAP antibody (1:200), rat monoclonal anti-[…] antibody (1:50) and rabbit monoclonal anti-Iba-1 antibody (1:200). Sections were rinsed in TBS with 0.1% Triton-x 100. […] The quantification was performed as described previously. […] The number of pixels per image with intensity above a predetermined threshold level was considered as a positively stained area for an interested marker and quantified using the Image-pro plus 6.0 (Media Cybernetics, Inc., Rockville, MD, USA) and presented as percentage of positive area in the total area. […] All quantitative analyses were performed in a blinded manner.

C3ar = C3ar immunofluorescent staining of hippocampus; conditions: young adult mice with exercise and surgery; intraperitoneal valeric acid
Protocol: as §1

[1] = Cortical valeric acid quantification by HPLC; conditions: 9-week old mice, intraperitoneal valeric acid vs normal saline; 24 h after the last injection
Protocol: The amount of valeric acid in the cerebral cortex harvested 24 h after the last intraperitoneal injection of valeric acid was determined by a method similar to that reported before. Briefly, 0.1 g cerebral cortex was homogenized in 500 μl aqueous acetonitrile. Supernatant was extracted with 8 ml extraction buffer (hexane: diethyl ether=1:1) and centrifuged at 1800 g for 5 min. 7.5 ml supernatant was collected, mixed with 93 μl 20 mM KOH in methanol and dried at 40° C. under nitrogen gas. Dried residue was reconstituted in 50 μl 2.5% 18-Crown-6 in acetonitrile and was further derivatized with 9-chloromethylanthracene in acetonitrile with addition of tetramethylammonium hydroxide. Finally, 30 μl derivatization solution was loaded to Acclaim C18 column (3 μm, 4.6×100 mm, Thermo Scientific) and separated in Ultimate 3000 high performance liquid chromatograph (HPLC, Thermo Scientific) equipped with UV-visible detector. The peak of derivatized valeric acid was detected at a wavelength of 254 nm. 2-Ethylbutyric acid (2-EA) was added as an internal reference control. The peak area of valeric acid was measured as mAU*min and its peak area of each sample was normalized with that of 2-EA in the sample. Final results were presented as ratios of valeric acid group to NS group.

IL-1β = test: ELISA of IL-1β in the serum; conditions: young mice, 100 mg/kg intraperitoneal 1 h before and 6 h after 120-min MCAO; 24 h after MCAO; vs saline
Protocol: Mice were weighed and anesthetized with isoflurane at 24 h after MCAO. Blood samples were obtained from the right heart after thoracotomy. Blood was centrifuged (13,000 g, 4° C.) after it had been placed at 4° C. for 2 h for the collection of serum. After the collection of blood, mice were perfused with 4° C. saline for brain tissue harvesting. The cerebral cortex (anteroposterior: -1.5 to 2.5 mm, mediolateral: 1.0 to 3.0 mm) was dissected out. All dissection procedures were performed on ice. IL-10, IL-17, IL-1β and IL-6 in the serum and brain were detected by using ELISA kits (catalog number: M1000B, M1700, MLB00C and D6050, R&D SYSTEM, Inc., Minneapolis, MN, USA) as we described before. The brain tissues were homogenized on ice in the RIPA buffer containing 25 mM Tris-HCl with pH 7.6, 150 mM NaCl, 1% sodium deoxycholate and 0.1% SDS (catalog number: 89901, Thermo Scientific, Rockford, IL, USA) and a protease inhibitor cocktail containing 10 mg/ml aproteinin, 5 mg/ml […], 5 mg/ml leupetin and 1 mM phenylmethane sulfonylfluoride (catalog number: SRE0055, Sigma-Aldrich, St. Louis, MO, USA). The supernatant was collected for ELISA detection after being centrifuged for 20 min (13,000 g, 4° C.) and the protein concentration was determined by the BCA method. Cytokines in the serum and supernatant of brain were detected according to the manufacturer's instruction. […]

amount of valeric acid in the brain (cerebral cortex) [1]: increased
Compound: CCCCC(=O)O [valeric acid]
exercise-induced reduction of IL-6 in the hippocampus (IL-6): this reduction was blocked
exercise-induced reduction of Iba-1 in the hippocampus (Iba-1): this reduction was blocked
exercise-induced reduction of C3ar in the hippocampus (C3ar): this reduction was blocked
IL-1β in the blood (IL-1β): increased
